System: Human arterial plaque samples
Experiment: in vitro dissolution and digestion of atherosclerotic plaque specimens (percent reduction of plaque weight)
Conditions: EDTA 0.5-2 mg/ml, β-cyclodextrin 1-100 mMol, tPA 0.5-2 mg/ml, p<0.05
Description: Atherosclerotic plaques from surgical endarterectomies were obtained from various anatomic sites. All experiments were performed by cutting a given plaque into equal parts by weight then exposing them to various agents alone and in combination to determine the most optimal digestion solution. The optimal concentration and conditions for plaque dissolution and digestion were determined for ethylenediaminetetraacetic acid (EDTA), β-cyclodextrin, tPA, collagenase type I, III, IV, and V. Weights of each specimen were obtained prior to exposure of each solution and at different time points to determine percent of digested versus undigested plaque. Additional variables that were assessed and optimized include: 1) different combinations of EDTA, β-cyclodextrin, and the collagenases, 2) temperature, 3) pH, and 4) agitation.
Atherosclerotic plaques were obtained from patients undergoing endarterectomies. The optimal concentration and conditions for plaque dissolution and digestion were determined for ethylenediaminetetraacetic acid (EDTA), β-cyclodextrin, and collagenase type I, III, IV, and V. Variables that were assessed included: 1) combination of different agents, 2) time, 3) temperature, 4) pH, and 5) agitation. Weight of each specimen was measured at different time points to determine percent of undigested plaque. […]

`O=C(O)CN(CCN(CC(=O)O)CC(=O)O)CC(=O)O` [EDTA, ethylenediaminetetraacetic acid] was tested, and the “reduction in plaque weight, agent alone” value was 15%.
For `OC[C@H]1O[C@@H]2O[C@H]3[C@H](O)[C@@H](O)[C@@H](O[C@H]4[C@H](O)[C@@H](O)[C@@H](O[C@H]5[C@H](O)[C@@H](O)[C@@H](O[C@H]6[C@H](O)[C@@H](O)[C@@H](O[C@H]7[C@H](O)[C@@H](O)[C@@H](O[C@H]8[C@H](O)[C@@H](O)[C@@H](O[C@H]1[C@H](O)[C@H]2O)O[C@@H]8CO)O[C@@H]7CO)O[C@@H]6CO)O[C@@H]5CO)O[C@@H]4CO)O[C@@H]3CO` [β-cyclodextrin], the “reduction in plaque weight, agent alone” value was 2%.
